The text below walks through data of article PMC12040169 (PLOS Biology, 2025).

This data set is described as follows: in vitro. Particulars: human, hela cells, % viability.

On to `COCc1nc(C)c(C(=O)NC2CCCN(c3ccn(C)n3)C2=O)s1` (stereo not drawn) [CBK306497], for which the viability at 28.5 h, 10 µM was found to be 92.2%.
In the case of `CC1Cc2ccccc2N1CCNC(=O)Cc1cn2ccsc2n1` (stereo not drawn) [CBK306499], the viability at 28.5 h, 10 µM came out at 87.6%.
The value for `Cc1c(C(=O)N(C)Cc2nc3ccccc3s2)nnn1C1CCNCC1` [CBK306501C] was 85.9%; that for `CCOc1ccc(-c2ccnc(C)n2)cc1C(=O)O` [CBK306505] was 104%.
The value for `O=C(O)CCn1cc(CN2CCOc3ccccc3C2)cn1` [CBK306507] was 101%; that for `Cc1cc(=O)c2ccccc2n1CC(=O)N1CCNC(=O)C1C` (stereo not drawn) [CBK306511] was 109%.
On to `COc1ccc2c(c1)cc(C(=O)N1CCCn3cncc3C1)n2C` [CBK306516], for which the viability at 28.5 h, 10 µM is 96.1%.
Next, `Cn1ncc(N2CCC(CNC(=O)COc3ccc(Cl)cc3)C2)cc1=O` (stereo not drawn) [CBK306517]: 79%.
The value for `CSc1nnc(CC2CCN(C(=O)Cn3nnnc3N)CC2)n1C` [CBK306520] was 97.6%; that for `O=C(c1ccc(NCCCCO)nc1)N1CCC(N2CCOCC2)CC1` [CBK306521] was 96%.
Regarding `CN1CC(c2ccccc2)CC2(CCN(CCCn3cnnn3)CC2)C1` (stereo not drawn) [CBK306522], the viability at 28.5 h, 10 µM was 95%.
With `CCn1c(C)cc(C(=O)NC2CCN(c3ncccc3C#N)CC2)c1C` [CBK306524], the viability at 28.5 h, 10 µM was found to be 87.8%.
Consider `CCC(NC(=O)Nc1cc(N2CCOCC2)ccc1Cl)c1nc(C)no1` (stereo not drawn) [CBK306526], for which the viability at 28.5 h, 10 µM was 87.9%.
The value for `Cc1cccc(=O)n1CCC(=O)N1CCCCC1CN1CCOCC1` (stereo not drawn) [CBK306528] was 109%.
Next, `COCCN(Cc1cnn(C)c1)C(=O)Nc1cccc2nc(C)ccc12` [CBK306529]: 106%; `Cc1cnc(C)c(N2CCN(C(=O)NCCSc3nncn3C)CC2)n1` [CBK306531]: 92.9%.
As for `Cc1cc(O)n2nc(CC(=O)NCCCn3c(C)cccc3=O)nc2n1` [CBK306532], the viability at 28.5 h, 10 µM came to 97.1%.
Next, `CC(C)c1cc(C(=O)N2CCNC(c3ccccc3)C2)nc2ncnn12` (stereo not drawn) [CBK306533]: 91.9%; `Cc1nc(C)c(C(=O)Nc2nn(C)c3cccc(N4CCOCC4)c23)o1` [CBK306534]: 83.8%.
As for `CCn1c(CC2CCN(C(=O)CCCn3cnnn3)CC2)nn(C)c1=O` [CBK306537], the viability at 28.5 h, 10 µM was found to be 102%.
Next, `CCCOC1CCCN(C(=O)c2ccc(-c3ccc(Cl)cn3)cc2)C1` (stereo not drawn) [CBK306540]: 89.5%.
In the case of `COC1CCCN(Cc2cncn2C2CCCCC2)C1` (stereo not drawn) [CBK306542], the viability at 28.5 h, 10 µM is 101%.
Turning to `Cc1ccccc1N1CCC(CNC(=O)CCc2ccnn2C)C1` (stereo not drawn) [CBK306543], the viability at 28.5 h, 10 µM worked out at 89%.
The value for `CC(C)CC(NC(=O)N1CCOc2ccc(Cl)cc2C1)c1ncnn1C` (stereo not drawn) [CBK306544] was 115%; that for `Cc1cccn2c(CN3CCCC(O)C3)c(C(=O)N3CCOCC3)nc12` (stereo not drawn) [CBK306545] was 72.5%.
Next, `Cc1cccn2c(CN3CCC(O)CC3)c(C(=O)N3CCOCC3)nc12` [CBK306546]: 104%; `O=C(Cc1ccsc1)N1CCn2nc(C(O)Cc3ccccc3)cc2C1` (stereo not drawn) [CBK306547]: 95.9%; `CCCc1nc(C(=O)NC2CC(=O)N(CCc3ccc(F)cc3)C2)cs1` (stereo not drawn) [CBK306548]: 105%.
On to `Cc1cc(C)n(CCCC(=O)N2CCOCC(O)(CN3CCCC3)C2)n1` (stereo not drawn) [CBK306550], for which the viability at 28.5 h, 10 µM turned out to be 101%.
Next, `CC(NC(=O)CCc1cc2n(n1)CCNC2)c1cn2ccsc2n1` (stereo not drawn) [CBK306551]: 91.2%.
Next, `CC(C)c1cc(C(=O)N[C@@H]2CCOC[C@H]2Oc2ccc(CO)cc2)on1` [CBK306554]: 101%; `COC(CNC(=O)N(C)Cc1nncn1C(C)C)c1cccs1` (stereo not drawn) [CBK306556]: 90.8%.
As for `Cc1cc(C(F)(F)F)n2ncc(C(=O)N3CCCC3c3ccco3)c2n1` (stereo not drawn) [CBK306557], the viability at 28.5 h, 10 µM turned out to be 93.5%.
Next, `OC1(CN2CCCC2)COCCN(c2nnc(-c3ccccc3)s2)C1` (stereo not drawn) [CBK306558]: 97.5%.
The value for `N#Cc1ccnc(N2CCC3(CCCN(CC4CCCCC4)C3=O)C2)c1` (stereo not drawn) [CBK306561] was 96.9%.
The value for `CCn1c(=O)oc2cc(NC(=O)NCCN3CCCCC3CO)ccc21` (stereo not drawn) [CBK306565] was 107%; that for `CC(=O)Nc1ccc(CNC(=O)CN(C)CC2CCCCO2)cc1` (stereo not drawn) [CBK306567] was 89.6%.
As for `CCCn1cnnc1C(C)NS(=O)(=O)c1cccc(C(=O)N2CCC2)c1` (stereo not drawn) [CBK306569], the viability at 28.5 h, 10 µM was 103%.
`CC(C)c1cc(C(=O)N2CC(N3CCOCC3)C2)nc2ncnn12` [CBK306572]: the viability at 28.5 h, 10 µM was found to be 86.9%.
With `OC1CC(c2cc(NCCc3nc4ccccc4o3)ncn2)C1` (stereo not drawn) [CBK306573], the viability at 28.5 h, 10 µM turned out to be 99.9%.
Next, `Cc1cc(C(=O)NCc2cccnc2N(C)C2CCCCC2)nn1C` [CBK306577]: 69.6%.
For the molecule `Cc1cccc(OCC2CCCN(C(=O)C3(Cn4cccn4)CC3)C2)c1` (stereo not drawn) [CBK306578], the viability at 28.5 h, 10 µM was found to be 102%.
With `CC(C)c1cc(C(=O)N(Cc2ccccn2)CC2CCCO2)on1` (stereo not drawn) [CBK306579], the viability at 28.5 h, 10 µM was 95.3%.
The value for `Cc1cc(CN(C)c2nccc(N3CCN[C@H]4CS(=O)(=O)C[C@H]43)n2)no1` [CBK306580] was 109%.
As for `COc1cccc2ncn(CCNS(C)(=O)=O)c(=O)c12` [CBK306583], the viability at 28.5 h, 10 µM was determined as 81%.
As to `Cc1oc2c(c1C(=O)NCCSc1nncn1C)C(=O)CCC2` [CBK306589], the viability at 28.5 h, 10 µM came out at 92.5%.
As to `O=C(O)C1(Oc2ccc3ncccc3c2)CCN(C2CCCCC2)CC1` [CBK306591], the viability at 28.5 h, 10 µM amounted to 92.4%.
On to `Cn1nnnc1SCCNC(=O)Nc1cccc(N2CCOC2=O)c1` [CBK306593], for which the viability at 28.5 h, 10 µM amounted to 84.4%.
`CC(Cn1cncn1)NS(=O)(=O)c1cccc(C(=O)N2CCCCC2)c1` (stereo not drawn) [CBK306594]: the viability at 28.5 h, 10 µM was found to be 86.7%.
In the case of `CCC(O)Cn1nc(CCSC)nc1-c1cc(=O)n(C)c2ccccc12` (stereo not drawn) [CBK306596], the viability at 28.5 h, 10 µM came to 83.6%.
The value for `CCCN1CC(NS(=O)(=O)c2ccnn2CCC)CC1=O` (stereo not drawn) [CBK306598] was 92.9%; that for `CCc1nn2c(=O)cc(CN3C(=O)COc4cccnc43)nc2s1` [CBK306599] was 88.9%; that for `CC(C)Cn1cncc1CN1C(=O)CC2(CCCC2)CC1=O` [CBK306600] was 116%.
The value for `CCOCC1CCCN1C(=O)Nc1ccc2sc(C(=O)N(C)C)cc2c1` (stereo not drawn) [CBK306601] was 98.3%; that for `CCc1ccccc1-c1cccc(C(=O)NCC(O)CN(C)C)c1` (stereo not drawn) [CBK306604] was 92.9%; that for `COCCN(C)C(=O)c1cn2cc(-c3cc(C)oc3C)n(C)c(=O)c2n1` [CBK306605] was 80.5%.
For the molecule `CNc1cc(C(=O)N[C@@H]2CCOC[C@H]2Oc2ccc(CO)cc2)ccn1` [CBK306606], the viability at 28.5 h, 10 µM was 98.1%.
The value for `CCc1csc(CCNc2ccc(-c3nc(C4CC4)no3)cn2)n1` [CBK306608] was 91.3%; that for `CCCNC(=O)c1ccc(C)c(NC(=O)N[C@@H](CO)c2ccccc2)c1` [CBK306609] was 96.2%; that for `Cc1nc(CCCn2cnc3cnccc3c2=O)sc1C` [CBK306610] was 102%.
The value for `O=C(Cc1cn2ccsc2n1)NCCCN1CCCc2ccccc21` [CBK306611] was 101%; that for `CCCn1ncc(CN2CCC3(CC2)CC(C(=O)O)N(C(C)=O)C3)c1C` (stereo not drawn) [CBK306612] was 86.7%.
On to `COc1nccc(N2CCN(C(=O)C3CC3)CC(O)C2)c1C#N` (stereo not drawn) [CBK306613], for which the viability at 28.5 h, 10 µM came to 79.1%.
With `CCCCSc1nc(N)cc(N2CCC(C(=O)N3CCOCC3)CC2)n1` [CBK306619], the viability at 28.5 h, 10 µM turned out to be 96.8%.
The value for `CN(C)C(=O)CC(O)c1cc2n(n1)CCN(Cc1cccs1)C2` (stereo not drawn) [CBK306620] was 113%; that for `COc1ccc2c(c1)cc(C(=O)NCCN1CCCCC1CO)n2C` (stereo not drawn) [CBK306621] was 114%; that for `CN(CCC1CCOCC1)c1nc2c(c(=O)[nH]1)Cc1ccccc1OC2` [CBK306622] was 96.2%.
Turning to `Cc1nc(N2CCN(C)CC2)ncc1C(=O)NCCSc1cnn[nH]1` [CBK306623], the viability at 28.5 h, 10 µM was found to be 88.2%.
Next, `CCOCCC(=O)NC1CCCc2nc(N3CCC(CO)CC3)ncc21` (stereo not drawn) [CBK306624]: 92.8%; `Cc1nc(CC(=O)Nc2nn(C)c3cccc(N4CCOCC4)c23)cs1` [CBK306627]: 89.7%.
Consider `Cc1ccn2cc(CNC(=O)CCC(C)N3CCN(C)CC3)nc2c1` (stereo not drawn) [CBK306628], for which the viability at 28.5 h, 10 µM was 97.2%.
Consider `NC1CC(c2cc(NCc3cn4ccccc4n3)ncn2)C1` (stereo not drawn) [CBK306631], for which the viability at 28.5 h, 10 µM was 112%.
Next, `CCCn1nc(COc2cccc(F)c2)nc1C1CCN(C(C)=O)CC1` [CBK306637]: 97.7%; `CO[C@@]12CC[C@H](OCC(=O)O)C[C@@H]1N(Cc1c(C)cnn1C)CC2` [CBK306638]: 95.6%.
The value for `COc1ccnc(N2CCN(C(=O)c3cccc4c3NCCC4)CC2)n1` [CBK306639] was 109%.
The value for `Cc1cc(=O)n(CC(=O)NC(Cc2ccncc2)[C@H]2C[C@H](O)C2)nc1C` (stereo partly drawn) [CBK306641] was 101%.
For the molecule `COc1cncc(C(NC(=O)Cc2cn3ccsc3n2)[C@H]2C[C@H](O)C2)c1` (stereo partly drawn) [CBK306642], the viability at 28.5 h, 10 µM is 97.2%.
The value for `CC(=O)c1cccc(-c2nc(CC3CCN(C)CC3)nn2CCO)c1` [CBK306645] was 98.3%.
Turning to `CN(C)S(=O)(=O)NC1CC(C)(C)Cc2c1cnn2-c1ccc(F)cc1` (stereo not drawn) [CBK306646], the viability at 28.5 h, 10 µM came to 112%.
Regarding `CCCCC1C(=O)N(C)CCN1C(=O)NCc1cn2ccc(C)cc2n1` (stereo not drawn) [CBK306648], the viability at 28.5 h, 10 µM amounted to 91.8%.
Next, `COCCn1ccnc1C1CCN(C(=O)Cc2ccc(O)c(F)c2)CC1` [CBK306649]: 82.6%.
